Values of other authors, collected in US7879374B2, “Composition including superoxide dismutase and prickly-pear cactus for minimizing and preventing hangovers” (priority 2005, dated 2011).

Experiments:
[1] = by speeding the use of fat during exercise
[2] = rat, in vivo, po
[3] = test system: hepatic metabolizing enzymes for lipids and alcohol
[4] = recent study of one-hundred twenty young females
[5] = liver of rats given sesamin vs vehicle

**Q.** With `Cn1c(=O)c2c(ncn2C)n(C)c1=O` [Caffeine] as the compound, how does the increase in endurance [1] read?
**A.** Its increase in endurance is “about fifteen”.

**Q.** Which results are given for `c1cc2c(cc1[C@H]1OC[C@H]3[C@@H]1CO[C@@H]3c1ccc3c(c1)OCO3)OCO2` [Sesamin]?
**A.** dose of sesamin detected in bile as glucuronides of catechol metabolites [2]: Over 40 % of the dose; gene expression levels of the late stage enzymes of beta-oxidation (trifunctional enzyme, acyl-CoA oxidase, bifunctional enzyme, 3-ketoacyl-CoA thiolase) [3, 5]: significantly increased; gene expression of alcohol dehydrogenase [3, 5]: not changed; gene expression of aldehyde dehydrogenase [3, 5]: about 3 fold; gene expression of liver catalase [3, 5]: not changed; transcription of the genes encoding the enzymes for fatty acid synthesis [3, 5]: decreased; gene expression of CYP2E1 ([3]; rat, in vivo): not changed

**Q.** Which “effects on mood and cognitive functioning” value [4] does the source give for `Cc1ncc(C[n+]2csc(CCO)c2C)c(N)n1` [Thiamin] here?
**A.** The value was “positive effects”.
